These results are taken from patent US9249097B2, “3-aminocarbazole compound, pharmaceutical composition containing it and preparation method therefor” (AZIENDE CHIM. RIUN. ANG. FRANC. A.C.R.A.F. S.p.A., priority 2008, dated 2016).

One series deals with production of PGE2. In words: Inhibition of PGE2 production in IL-1β-stimulated A549 cells (EIA). Format: cell-based. Particulars: Homo sapiens, IL-1β 1 ng/ml, 22 hours. From the text: (§1) This test allows evaluation of the inhibitory capacity on the production of the PGE2 and the selectivity relative to the production of the PGF2α.
(§2) The cell line A549, human pulmonary adenocarcinoma, was used, which is particularly sensitive to stimulation with pro-inflammatory cytokines, for instance IL-1β, and, in response to this stimulation, is particularly active in the production and release of two prostanoids: PGE2 and PGF2α (Thoren S. Jakobsson P-J, 2000).
(§3) The cells were stimulated with IL-1β (1 ng/ml) and simultaneously treated with the test compound for 22 hours in an appropriate culture medium (DMEM—Dulbecco's Modified Eagle's Medium) supplemented with 5% foetal calf serum and L-glutamine (4 mM final) in an incubator at 37° C. and at a CO2 concentration of 5%.
(§4) After the incubation, the amount of PGE2 and PGF2α produced and released into the supernatant were assayed using an EIA kit (produced and sold by Cayman Chemicals, Ann Arbor, Mich., USA).
(§5) The comparative compound used was indomethacin at a concentration of 10 nM (Sigma-Aldrich), a non-steroidal anti-inflammatory drug that inhibits in equal measure both PGE2 and PGF2α.
(§6) The results, expressed as the IC50 values, i.e. as the concentration of compound that inhibits 50% of the production of PGE2 and of PGF2α relative to the cells that have been stimulated, but not treated with the same compound, are given in Table 2. The inactivity or the reduced activity of the compound on the biosynthesis of PGF2α is an indication of selectivity towards the production of PGE2 and thus of selective inhibition of mPGES-1.

The subject of the next series is production of PGF2α. The series can be described thus: Inhibition of PGF2α production in IL-1β-stimulated A549 cells (EIA). Format: cell-based. Conditions: Homo sapiens, IL-1β 1 ng/ml, 22 hours.
Text: as §1, §2, §3, §4, §5, §6

For a further series, the system named is mice. In words: Acetic acid-induced writhing in mice. Format: in vivo. Particulars: for No. of writhes: 20 minutes after acetic acid; for % of inhibition: writhes vs vehicle. The procedure: The test compound was evaluated in the model of acetic acid-induced writhing in mice (Stock J. L. et al., J. Clin. Inv. 2001, 107: 325-331). This test allows evaluation of the antinociceptive activity of the compounds of the invention in a model of inflammatory pain.
Female CD-1 mice weighing 25-30 g were used for the test. The animals were treated intraperitoneally with the test compound (0.1-10 mg/kg) suspended in methylcellulose (MTC). The control animals were treated with the vehicle alone (MTC) via the same route.
Half an hour after the treatment, an intraperitoneal injection of acetic acid (0.7% v/v in physiological saline, 16 μl/g of body weight) was given to the animals to induce inflammatory pain and to check the effects of the test compound on the nociceptive response.
Immediately after the administration of acetic acid and for the following 20 minutes the number of writhes was measured, which represents the parameter for evaluation of the nociceptive response.
Background: In writhing tests, fewer writhes than in controls are read as antinociception.

Series [1] is described as follows: Metabolic stability in rat hepatic microsomes. Particulars: Sprague-Dawley, rat, microsomes, 1 h, 1 μM, pH 7.4. The procedure: (§7) This test allows evaluation of the metabolic stability of the compounds of the invention and of the comparative compounds in rats and in man.
(§8) The compounds to be analysed, at a final concentration of 0 and 1 μM, were placed in a suspension containing the pool of microsomes at a final concentration of 0.5 mg/mL in a final volume of 200 μL, in 96-well plates. The test was standardized with phosphate buffer (75 mM, pH 7.4) and with the NADPH regenerating system (MgCl2: 3.3 mM; G6P: 3.3 mM; G6PD: 0.4 U/mL; NADP+: 1.3 mM). […] The samples were incubated at 37° C. in a humidified incubator. At time 0 and after 60 minutes, 100 μL of acetonitrile containing the internal standard (0.2 μM of metoprolol and 0.4 μM of diclofenac) were added to stop the reaction.
(§9) The samples were centrifuged before analysis. The HPLC/MS/MS analysis was performed using an electrospray ion source in positive ionization and SRM (Single Reaction Mode). The chromatographic conditions entail the use of an XDB-C18 column (2.1×50 mm, Agilent) and a gradient from 5% to 91% of acetonitrile in water containing 0.1% formic acid (total runtime equal to 6 minutes); the flow rate was 0.5 ml/minute.
(§10) The areas of the peaks for the test compounds were integrated and the results expressed as the analyte area/internal standard (PAR) area ratio. For each time, two samples were analysed and the mean value calculated. The percentage of the value of remaining compound was calculated as: % unmetabolized compound=100*(mean PARTfinal/mean PART0).

Series [2] in a line: Metabolic stability in human hepatic microsomes. Particulars: human, microsomes, 1 h, 1 μM, pH 7.4. The procedure: as §7, §8, §9, §10
Another series is described as follows: in vitro. Conditions: human, Caco-2, pH 7.4. The procedure:
This test allows evaluation of the amount absorbed by the intestinal barrier of the compounds of the invention and of the comparative compounds using the Caco-2 cell line as an in vitro model of intestinal barrier. The permeability test on Caco-2 cells represents an in vitro system approved for predicting and estimating the in vivo intestinal absorption of a drug. When the Caco-2 cells are cultured on a porous filter for about 21 days, they have the capacity to differentiate into enterocytes.
The compounds undergoing the test were diluted from a 10 mM stock solution in HBSS to a final concentration of 10 μM. The system consisted of a confluent cellular monolayer in culture for 21-28 days.
Each compound was tested in triplicate, bidirectionally, at pH 7.4, from the apical to the basolateral compartment (A→B) and from the basolateral to the apical compartment (B→A).
The samples collected at the given time were analysed by HPLC-MS/MS, using an electrospray ion source in positive ionization and SRM (Single Reaction Mode). The chromatographic conditions entailed the use of an XDB-C18 column (2.1×50 mm, Agilent) with a gradient from 5% to 91% of acetonitrile in water containing 0.1% formic acid (total runtime equal to 6.5 minutes) and a flow rate of 0.5 ml/minute. Metoprolol was used as the internal standard.
The concentration data were used to calculate the apparent permeability values (Papp), and the mean and standard deviation of the Papp were calculated.
The flux ratio was calculated as Papp(B→A)/Papp(A→B). The recovery percentage was calculated as: (amount in the receiving compartment+amount in the donor compartment)/nominal amount
The area of the peaks of the test compounds were integrated and the results were expressed as the analyte area/internal standard area ratio and corrected for the dilution factor used during the preparation of the sample. The apparent permeability coefficients were calculated using the following equation: […]
in which: • VA volume in the receiving well (0.25 mL for the test from A→B, 0.075 mL for the test from B→A) • Area area of the membrane surface (0.11 cm^2) • Time total transport time (3600 seconds)

The nature of series [3]: In vivo bioavailability, oral cassette dosing. Particulars: oral 5 mg/kg. The procedure: This test allowed evaluation of the in vivo bioavailability of the compounds of the invention, thus making it possible to evaluate and compare the pharmacokinetic profile of the test compounds.
The tests were performed using the cassette method, i.e. by administering orally several products simultaneously to the same animal, at a dose of 5 mg/kg. The products were suspended in methylcellulose (MTC). The treated animals were catheterized for the serial collection of blood samples performed by means of an automatic sampling system. The plasmatic concentrations of the products were measured by HPLC/MS/MS. The profiles of the plasmatic concentrations over time made it possible to evaluate the relative bioavailability of the test products in terms of rate (tmax and Cmax) and […] (AUC). The slope of the curve in the end portion also allowed a comparative evaluation of the rate of elimination of the compounds from the plasma, the slower the rate, the lower the slope. Three animals were treated for each combination of compounds.
The results, expressed as the Cmax, i.e. as the maximum concentration of drug reached in the plasma, Tmax, i.e. the time required to reach the maximum drug concentration in the plasma, and AUC0-7, i.e. the area under the curve of the plasmatic concentrations of drug over time, measured in the first seven hours after administration, are given in Table 5.

The term IC50 denotes the midpoint of a concentration-inhibition curve. The low end stands for inhibition by little substance, the high end for a need for much substance. By Papp is commonly meant the rate of passage across a membrane or cell layer, normalised by area and donor concentration. In general, Cmax refers to the highest concentration seen after dosing. Usually Tmax stands for the time at which the peak concentration occurs. As usually defined, the melting point is the temperature of the solid-liquid transition. On to `O=C(Nc1ccc2c(c1)c1ccccc1n2CCO)c1ccccc1C(F)(F)F` [Compound 1, N-[9-(2-hydroxyethyl)-9H-carbazol-3-yl]-2-(trifluoromethyl)benzamide], for which the melting point was in the range of 176 to 177 °C. In addition, the IC50 in the series on production of PGE2 was determined as 2.9 µM. Also, in the series with production of PGF2α, the IC50 is > 100 µM. Moreover, in the series with mice (0.1 mg/kg intraperitoneally), the No. of writhes is on record as 38.4 ± 3.99 and the “% of inhibition” value amounted to 21%. For the same molecule, in the series with mice (1 mg/kg intraperitoneally), the No. of writhes is recorded as 31.5 ± 5.72 and the “% of inhibition” value is 35%. In the series with mice (10 mg/kg intraperitoneally), the No. of writhes is 12.8 ± 2.46 and the “% of inhibition” value was found to be 74%. Moreover, in series [1], the “% unmetabolized compound, Rat” value stood at 58%. In series [2], the “% unmetabolized compound, Man” value turned out to be 81%. Also, the Papp at 3600 seconds, 10 μM in the series “in vitro” is > 200 nm/s. Besides, in series [3], the “bioavailability / absorption in words” value was “good bioavailability characteristics”. Also, in series [3] (plasma), the Cmax was determined as 1.2 µg/mL and the Tmax turned out to be 1.5 h. Further, the AUC(0-t) in series [3] (plasma, first seven hours, read-out: AUC0-7) was 5.75 µg·h/mL.
